Reference: patent US20210121418A1, “TREATMENT OF PROTEINURIA” (SYNACT PHARMA APS, priority 2018, published 2021)

Key:
clinical [1] = conditions: human, plasma, oral, 200 mg
[2] = Effect of meal timing and apple juice on absorption of the suspension; format: in vivo
Experimental: The effect of food intake on the absorption of AP1189 in the current suspension formulation has not been systematically evaluated. However, it has been shown that the plasma profile of the compound, whether the first meal was served 1 hour or 4 hours post-dosing in the fasting state, is very similar.

[3] = Phase I Part IV, 14-day repeated dose, oral suspension (PK and safety); conditions: for C Max (mean +/− SD, N = 9) / C Trough (Mean +/− SD, N = 9): steady conditions
[4] = Phase I Part I, single ascending dose, oral suspension (PK and safety)
peritonitis = conditions: oral; cited from earlier work
MC3R = conditions: cited from earlier work
MC1R = conditions: cited from earlier work
macrophages = conditions: cited from earlier work
[5] = test system: experimental inflammatory arthritis; conditions: in vivo; cited from earlier work
clinical [6] = conditions: male, human, plasma
CYP1A2 = CYP1A2 induction in human hepatocyte; format: in vitro ADME; conditions: 10 μM
[7] = test system: Passive Heymann Nephritis; assay: Passive Heymann Nephritis, experiment 2 (oral gavage vs ACTH(1-24)); format: in vivo, rat; conditions: 4 weeks treatment
Experimental: Passive Heymann Nephritis was introduced to Male Sprague-Dawley rats by administration of anti-Fx1A serum (PTX-002S, Probetex, San Antonio, Tex., USA) Probetex, lot 169-6H) on study day 0 (1 ml serum) and on study day 7 (0.25 serum) into the jugular vein by slow injection during isoflurane anaesthesia. […] In another experiment (experiment 2) test compound 1 was given once daily by oral gavage. […] In this experiment treatment effect of test compound 1 was compared to the effect of ACTH(1-24) as ACTH from the literature has been described to have treatment effects on proteinuria in the applied experimental model. […] Likewise, the urine concentration of creatinine and albumin were determined and so was the volume of the 24-hours urine production. The blood sample was taken from the abdominal vein during pentobarbital (0.2-0.3 mL/rat ip; Dolethal, Vetoquinol via […], France). The collected blood was transferred into tubes coated with EDTA and centrifuged (10 minutes, 1000 g, 4° C.) for plasma collection. Plasma samples were stored at -80° C. until quantification of creatinine and Albumin. […] Statistical analyses were made by standard unpaired t-test, with p<0.05 considered statistical significant

[8] = test system: Passive Heymann Nephritis; assay: Passive Heymann Nephritis, experiment 1 (ip dosing); format: in vivo, rat; conditions: for FEAlb (fractional albumin excretion) reduced by: 10 mg/kg ip once daily; for proteinuria compared to control rats (vehicle): day 28 and day 42
Experimental: Passive Heymann Nephritis was introduced to Male Sprague-Dawley rats by administration of anti-Fx1A serum (PTX-002S, Probetex, San Antonio, Tex., USA) Probetex, lot 169-6H) on study day 0 (1 ml serum) and on study day 7 (0.25 serum) into the jugular vein by slow injection during isoflurane anaesthesia. […] Pharmacological intervention with control compound or test compound was initiated on day 14.
In one experiment (experiment 1) test compound 1 dissolved in isotonic saline was given once daily by intraperitoneal (ip) injections at a dose of 10 mg/kg (n=12) with animals treated with isotonic saline injections as controls (n=12).
In experiment 1 twenty-four hours urine collection were performed at three occasions, at day 14 following induction of nephritis, i.e. at the time point where pharmacological intervention was initiated, at day 28 and at day 42 following induction of nephritis. For urine collection the rats were placed in metabolic cages followed by a blood sample for measurement of plasma concentrations of creatinine and albumin. Likewise, the urine concentration of creatinine and albumin were determined and so was the volume of the 24-hours urine production.
The blood sample was taken from the abdominal vein during pentobarbital (0.2-0.3 mL/rat ip; Dolethal, Vetoquinol via Centravet, Lapalisse, France). The collected blood was transferred into tubes coated with EDTA and centrifuged (10 minutes, 1000 g, 4° C.) for plasma collection. Plasma samples were stored at −80° C. until quantification of creatinine and Albumin.
Albumin and creatinine in urine and plasma were quantified using a ABX Pentra 400 Clinical Chemistry analyzer (HORIBA).
Albumin excretion rate was determined as follows:
24 hours urine production×concentration of Albumin in urine.
Fractional Albumin excretion was determined as follows:
((Urine concentration of […]×24 hours urine production)/plasma concentration of albumin)/Creatinine Clearance×100
All data presented as mean±Standard error of mean (SE). Statistical analyses were made by standard unpaired t-test, with p<0.05 considered statistical significant

melanocytes = conditions: cited from earlier work

NC(N)=N/N=C/C=C/c1cccn1-c1ccccc1[N+](=O)[O-] [AP1189, (E)-N-trans-{3-[1-(2-nitrophenyl)-1H-pyrrol-2-yl]-allylidene}-aminoguanidium acetate]
Cmax (clinical [1]): ≤ 900 ng/mL | absorption with a glass of apple juice immediately after dosing [2]: does not reduce the absorption | plasma profile, first meal 1 hour or 4 hours post-dosing ([2]; dosing in the fasting state): very similar | C Max (mean +/− SD, N = 9) ([3]; 50 mg once daily): 180 ± 38 ng/mL | C Trough (Mean +/− SD, N = 9) ([3]; 50 mg once daily): 46 ± 14 ng/mL | C Max (mean +/− SD, N = 9) ([3]; 100 mg once daily): 427 ± 76 ng/mL | C Trough (Mean +/− SD, N = 9) ([3]; 100 mg once daily): 100 ± 25 ng/mL | exposure at maximum administrated dose above expected therapeutic exposure level ([3]; 200 mg): 5 × | exposure based on Cmax vs expected therapeutic range ([3]; 200 mg, group): ≤ 5 × | exposure based on Cmax vs expected therapeutic range ([3]; 200 mg, individual with the highest exposure): more than 7 × | C Trough (Mean +/− SD, N = 9) ([3]; 300 mg once daily): 186 ± 45 ng/mL | severe or serious adverse events ([3]; 50, 100 or 200 mg once daily, 14 days): No severe AEs nor serious AEs were reported | steady state achieved ([3]; Cohort 1, 50 mg once daily): 7 days | peak increase compared to cohort 1 ([3]; Cohort 2, 100 mg vs 50 mg): approximately 2 fold | subjects with isolated increases in aminotransferases ([3]; Cohort 3 (200 mg), treated with active): 3 subjects | time Cmax was reached post dosing ([3]; Cohort 3, 200 mg once daily): 1 to 2 h | safety profile ([3]; for 50 mg or 100 mg doses for four weeks): good safety profile | TEAEs considered possibly related to the study treatment ([3]; gastrointestinal, 50 mg and 200 mg dose levels): 4 events | QTcF, repeated standard 12 lead safety ECG ([3]; in vivo): No individual QTcF clinically significant values were observed | Cmax and AUCs, female compared to male subjects ([4]; 400 mg): slightly increased | apparent volume of distribution, female compared to male ([4]; 400 mg): similar | exposure at maximum administrated dose above expected therapeutic exposure level ([4]; 800 mg): more than 10 × | increase of ALT above the normal upper value ([4]; 400-800 mg): up to 1.6 | TEAEs considered related to the study treatment ([4]; after administration of 200 to 800 mg): 21 events | apparent clearance ([4]; female subjects, 400 mg): 17.26 L/h | QTcF and other cardiac parameters, 24-hours Holter ECG ([4]; in vivo): No AP1189 associated increases in QTcF | changes in vital signs ([4]; in vivo): No treatment-related changes in vital signs | frequency of related gastrointestinal TEAEs vs dose ([4]; in vivo): increased with the dose | subjects with isolated increases in aminotransferases ([4]; male subjects on active IMP, 400, 600, 800 mg): 4 subjects | inter-individual variability for Cmax and AUCs ([4]; male subjects, 50-800 mg): < 36% | severe or serious adverse events ([4]; single doses 15-800 mg): No severe AEs nor serious AEs were reported | anti-inflammatory actions in peritonitis (peritonitis): elicits anti-inflammatory actions in peritonitis and accelerated the resolution phase | ERK1/2 phosphorylation (MC3R): cause ERK1/2 phosphorylation | canonical cAMP generation (MC3R): does not induce canonical cAMP generation | ERK1/2 phosphorylation (MC1R): cause ERK1/2 phosphorylation | canonical cAMP generation (MC1R): does not induce canonical cAMP generation | cytokine release (macrophages): reduce cytokine release | macroscopic and histological parameters of joint disruption [5]: significant reduction of macroscopic and histological parameters of joint disruption | Vd/F (clinical [6]; oral): 556 to 784 L | half-life (clinical [6]; oral): ~20 h | Tmax (clinical [6]; po): 1 to 4 h | CYP1A2 induction (CYP1A2): signal for CYP1A2 induction has been observed | GFR (creatinine clearance) ([7]; 20 mg/kg oral gavage): 3.12 ± 0.14 mL/min | fraction albumin excretion (FEAlb) ([7]; 20 mg/kg oral gavage): 0.045±0.04% | fraction albumin excretion (FEAlb) ([7]; 40 mg/kg oral gavage): 0.35±0.05% | reduction in albumin excretion rate ([8]; 10 mg/kg ip once daily from day 14, day 28): 31±8% | reduction in albumin excretion rate ([8]; 10 mg/kg ip once daily from day 14, day 42): 48±10% | FEAlb (fractional albumin excretion) reduced by ([8]; day 28): 48±5% | FEAlb (fractional albumin excretion) reduced by ([8]; day 42): 45±11% | proteinuria compared to control rats (vehicle) [8]: significantly reduces proteinuria | proteinuria compared to control rats (vehicle) ([8]; listed as test compound 1): significant reduction in proteinuria | reduction in albumin excretion rate ([8]; day 482 as printed in FIG. 1 legend): 48±10% | melanogenesis (melanocytes): no melanogenesis was induced
